Data from US7799831B2, “Lipophilic diesters of chelating agent for inhibition of enzyme activity” (D-Pharm Ltd., priority 2002, dated 2010).

What was measured:
MMP-9 [1] = target: T1, MMP-9 (Homo sapiens, UniProt P14780); assay: MMP-9 activity assay (BioTrak) in conditioned media of TNFα-treated A-172 glioma cells; assay type: cell-based; conditions: A-172 cells, 10 ng/ml TNFα, 20 or 50 μM compound
T1 construct: endogenous in cells; host or cells: A-172 human glioma cells (ATCC CRL-1620)
Protocol: (§1) A-172 human glioma cells (ATCC; CRL-1620) were grown and treated with 10 ng/ml TNFα in the presence of 0, 20 or 50 μM DP-b109 following the procedure as described above in Example 3. Cells treated with vehicle without the TNFα treatment, served as control groups.
(§2) CM from each treatment group was collected and subjected to zymogram gels (see procedure in Example 3), to MMP-9 immunoassay and to MMP-9 activity assay.
MMP-9 activity was assayed using the MMP-9 activity assay system (BioTrak™, Amersham, U.K., Cat. # RPN 2634), which quantifies the amount of the active MMP-9 form (see BioTrak kit instructions).

MMP-9 [2] = assay: Total MMP-9 protein immunoassay (Quantikine) in conditioned media of TNFα-treated A-172 glioma cells; assay type: cell-based, human; conditions: A-172 cells, 10 ng/ml TNFα, 20 or 50 μM compound
Protocol: as §1, §2
The total amount of MMP-9 protein was determined by immunoassay using the Quantikine™ (R&D Systems, U.S.A., Cat # DMP900) kit and following the manufacturer's instructions.

MMP-9 [3] = target: T2, MMP-9 (Rattus norvegicus, UniProt P50282); assay: MMP-9 zymogram of conditioned media from primary cortical glial cells (basal and TNFα-induced); assay type: cell-based; parameters: endogenous in cells; host or cells: primary cortical glial cells from rat embryos; conditions: 25 μM compound
Protocol: Cortical glial cells from rat embryos (day 18 of pregnancy) were seeded on poly-D-lysine coated 24-well plates with MEM medium containing 5% FCS, 5% HS, 2 mM 1-glutamine and 0.6% glucose, at a density of 5×10^4 cells/well. After 4 days in culture, the medium was changed to MEM+10% FCS. When glial cells reached confluence (around 17 days after plating), they were exposed for 24 hours to 10 ng/ml or 20 ng/ml human TNFα in order to induce MMP-9. The induction was performed either in the absence or presence of 25 μM DP-b99 (dilution 1:200 with medium from a stock of 5 mM in sodium citrate buffer) in a serum-free medium containing 5 mg/ml BSA (essentially fatty acid free). Conditioned media (CM) were collected and 12 μl of each of the triplicates was subjected to separate zymogram gels, as described above in Example 3.
A quantitative analysis of the MMP-9 bands, representing the pro- and active forms of the enzyme, was performed on the triplicate zymograms. The results were normalized to percentage of control values (=100%) and are depicted in FIGS. 3B and 3C that represent, respectively, the biologically active- and pro-MMP-9 forms of the enzyme.

calpain = assay: Calpain-cleaved spectrin in brain hemispheres after transient MCA occlusion; assay type: in vivo, rat; conditions: SD rats, 2 h MCAO, 5 μg/kg i.p. at start of reperfusion
Protocol: Transient middle cerebral artery (MCA) occlusion was performed in male Sprague Dawley (SD) rats by applying 4-0 silicone-coated nylon monofilament through external carotid artery. The animals were anesthetized with 4% halothane and maintained at 1.5% halothane in a 1:2 mixture of nitrous oxide and oxygen without tracheotomy and allowed to breathe spontaneously. Via a ventral cutaneous the common, right external and internal carotid arteries (ECA) were exposed. A suture was introduced into a ligated right external carotid artery, in a retrograde fashion towards the carotid bifurcation. It was then directed distally up to the right internal carotid artery to a distance of 20 mm from the carotid bifurcation to […] occlude the origin of the MCA. It was secured with silk ligatures. Two hours after occlusion the monofilament was withdrawn to allow reperfusion and the cutaneous wound was sutured and cleaned. The whole procedure took about 25 min., with rectal temperature maintained throughout at 37° C. […]
Assay for Calpain activity: Each hemisphere was separately lysed by homogenization on ice in 5 ml RIPA buffer (50 mM Tris pH 7.5; 150 mM NaCl; 0.5% DOC; 1% Triton X-100; 0.1% SDS; 1 mM Nappi; 2 mM EDTA) plus protease inhibitors (Bohringer, Manheim, Germany). […] Quantitation of the bands was performed using the Kodak 1D software. […]

MMP-9 [4] = target: T2, MMP-9; assay: MMP-9 activity in brain hemisphere lysates after unilateral MCAO (zymogram); assay type: in vivo; parameters: each hemisphere of their brains was subjected separately to lysis and extracted for enzymatic activity; from tissue; host or cells: rat brain hemispheres (Sprague-Dawley, MCAO); conditions: SD rats, 2 h MCAO, 5 μg/kg i.p. single dose, sacrificed after 24 hrs
Protocol: Six Sprague-Dawley (SD) rats were subjected to unilateral (right hemisphere) Middle Cerebral Artery Occlusion (MCAO) for 2 hours. 5 μg/kg DP-b99 in 0.02% sodium citrate in saline was i.p. administered to three animals in a single dose, followed by 2 hrs. reperfusion. The other three animals were treated with vehicle instead of DP-b99. A rat that was only operated with no further treatment was used as a sham control.
The seven rats were sacrificed after 24 hrs. and each hemisphere of their brains was subjected separately to lysis and extracted for enzymatic activity. Brains were minced and solubilized in lysis buffer (25 mM Tris-HCl pH 7.5, 1% IGEPAL CA-630—a non-ionic detergent from Sigma, 100 mM NaCl, 0.5 U/ml aprotinin, 0.01% sodium azide) at a final concentration of 400 mg/ml. The preparations were incubated for 24 hrs. at 4° C. before lysates were centrifuged at 14,000 rpm for 15 min. and supernatants were collected.
Protein concentration was determined by the Bradford assay and 40 μg protein from each lysate were loaded on gelatin zymogram gels for determination of MMP-9 levels. Gels were developed for 48 hrs. Quantitative analysis of the gels was performed using the Kodak Digital System and Kodak 1D software as described in Example 3.
Target sequence in this assay (P50282 108-708): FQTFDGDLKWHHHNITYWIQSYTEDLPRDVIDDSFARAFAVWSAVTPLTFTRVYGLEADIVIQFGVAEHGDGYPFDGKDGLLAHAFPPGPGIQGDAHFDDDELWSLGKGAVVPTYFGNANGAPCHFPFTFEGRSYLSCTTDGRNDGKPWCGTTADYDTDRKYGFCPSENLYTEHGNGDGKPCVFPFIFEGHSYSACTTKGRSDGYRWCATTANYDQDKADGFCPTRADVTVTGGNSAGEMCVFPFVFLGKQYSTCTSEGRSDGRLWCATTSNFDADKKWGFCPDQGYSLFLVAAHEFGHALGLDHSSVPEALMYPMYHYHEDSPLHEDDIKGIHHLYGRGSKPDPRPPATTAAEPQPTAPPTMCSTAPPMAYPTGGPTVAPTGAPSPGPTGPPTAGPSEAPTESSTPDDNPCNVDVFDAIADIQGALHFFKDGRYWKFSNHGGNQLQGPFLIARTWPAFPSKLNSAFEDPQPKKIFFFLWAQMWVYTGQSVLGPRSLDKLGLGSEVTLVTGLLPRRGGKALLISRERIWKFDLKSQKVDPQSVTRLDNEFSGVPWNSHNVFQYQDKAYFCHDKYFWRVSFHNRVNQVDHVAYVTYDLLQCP

MMP-2 = target: T3, MMP-2 (Rattus norvegicus, UniProt P33436); assay: MMP-2 activity in brain hemisphere lysates after unilateral MCAO (zymogram); assay type: in vivo; conditions: SD rats, 2 h MCAO, 5 μg/kg i.p. single dose, sacrificed after 24 hrs
T3 construct: each hemisphere of their brains was subjected separately to lysis and extracted for enzymatic activity; from tissue; host or cells: rat brain hemispheres (Sprague-Dawley, MCAO)
T3 sequence (P33436 110-662): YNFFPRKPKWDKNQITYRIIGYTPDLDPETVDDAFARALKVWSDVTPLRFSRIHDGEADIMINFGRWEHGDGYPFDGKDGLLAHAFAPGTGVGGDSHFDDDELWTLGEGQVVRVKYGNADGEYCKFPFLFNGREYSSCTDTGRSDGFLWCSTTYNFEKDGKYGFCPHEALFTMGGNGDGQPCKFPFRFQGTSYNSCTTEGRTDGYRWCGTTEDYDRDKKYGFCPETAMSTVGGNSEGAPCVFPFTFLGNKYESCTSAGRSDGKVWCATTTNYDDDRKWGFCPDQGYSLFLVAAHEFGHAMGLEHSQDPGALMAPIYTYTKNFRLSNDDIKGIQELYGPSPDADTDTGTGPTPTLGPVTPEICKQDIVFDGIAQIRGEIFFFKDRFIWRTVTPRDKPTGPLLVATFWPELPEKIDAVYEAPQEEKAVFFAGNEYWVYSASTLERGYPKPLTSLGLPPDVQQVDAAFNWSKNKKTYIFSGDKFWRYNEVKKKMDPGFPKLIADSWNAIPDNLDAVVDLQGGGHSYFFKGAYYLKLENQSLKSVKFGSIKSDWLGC

MMP-9 [5] = target: T2, MMP-9; assay: MMP-9 gelatinase activity by gelatin zymogram of conditioned media from C6 glioma cells (basal, TNFα- or PMA-induced); assay type: cell-based; conditions: for Effect on MMP-9 activity: C6 glioma cells stimulated with TNFα
Protocol: C6 rat glioma cells (ATCC; CRL-2199) grown on 100 mm petri dishes were detached by trypsinization and cultured to a density of 10^5 cells/well on 24-well plates in DMEM+10% FCS. The TNFα-treated cells which were stimulated to induce gelatinases were incubated, on the next day after plating, for 18 hours in DMEM without serum in the presence of either 20 ng/ml or 40 ng/ml
TNFα (R&D, cat. #410-TRNC). Different concentrations of the tested compound, as indicated, in 0.48% fatty acid free BSA, 0.4% ethanol were added to the cells that were then incubated for a total of 18-24 hours at 37° C. Cells treated with vehicle only served as control group.
Conditioned media (CM) were then collected, centrifuged at 2000 rpm for 5 min., and supernatants were transferred to new tubes. MMP gelatinase activity was determined by using zymogram gels (Invitrogen, cat. #EC6175) which include gelatin as a substrate. Samples were loaded on gels in 62.5 mM Tris-HCl pH 6.8, 10% glycerol, 2% SDS and traces of bromophenol-blue. Gels were run in Tris/glycine-SDS running buffer, washed for 30 min. with renaturing buffer (Invitrogen) and for further 30 min. with developing buffer (Invitrogen). MMP activity was developed overnight at 37° C. with fresh developing buffer. The gels were then stained for one hour with Coomasie Blue (Brilliant Blue R, Sigma, cat. #B-8647) in 40% methanol and 7% acetic acid, and destained with 30% methanol/10% acetic acid. […] Band analysis was determined using the Kodak digital Science™ 1D Image Analysis Software. Treatments were performed in triplicates and were subjected to three separate zymogram gels.
C6 glioma cells were grown and treated as described above in Example 3, except that cells were stimulated with either 20 ng/ml TNFα (R&D, cat. #410-TRNC) or 0.1 μM Phorbol 12-myristate 13-acetate (PMA, Sigma, cat. #P-8139). […]
Assays were performed in triplicates and zymogram analysis was carried out as described above in Example 3. IC50 values for each of the tested DP-BAPTA compounds were calculated.
Target sequence in this assay (P50282 108-708): as the sequence (P50282 108-708) above

T1 sequence (P14780 107-707 limits assumed): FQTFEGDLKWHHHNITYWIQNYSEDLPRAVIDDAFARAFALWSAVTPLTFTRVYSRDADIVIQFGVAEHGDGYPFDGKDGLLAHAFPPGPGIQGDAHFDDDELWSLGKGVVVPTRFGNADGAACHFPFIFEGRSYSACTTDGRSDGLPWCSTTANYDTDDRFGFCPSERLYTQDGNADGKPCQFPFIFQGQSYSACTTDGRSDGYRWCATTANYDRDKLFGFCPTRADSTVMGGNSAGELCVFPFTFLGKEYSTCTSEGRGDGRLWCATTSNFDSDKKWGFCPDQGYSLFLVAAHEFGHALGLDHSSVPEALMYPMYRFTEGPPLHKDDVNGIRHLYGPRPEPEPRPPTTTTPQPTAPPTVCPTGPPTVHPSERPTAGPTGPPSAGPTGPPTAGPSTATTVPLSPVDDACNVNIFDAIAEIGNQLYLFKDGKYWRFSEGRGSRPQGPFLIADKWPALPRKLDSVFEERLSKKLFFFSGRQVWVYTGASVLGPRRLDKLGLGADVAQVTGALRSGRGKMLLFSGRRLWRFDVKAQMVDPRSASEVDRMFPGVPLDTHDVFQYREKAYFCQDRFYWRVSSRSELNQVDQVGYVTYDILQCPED

## CCCCCCCCCCCCCCCCCCOCCOC(=O)CN(CC(=O)O)c1ccccc1OCCOc1ccccc1N(CC(=O)O)CC(=O)OCCOCCCCCCCCCCCCCCCCCC [DP-b109, 1,2-bis(2-aminophenoxy)ethane, N,N′-di(2-octodecyloxyethyl acetate), N,N′-diacetic acid]
MMP-9 [1]
  TNFα-induced increase in active MMP-9: reduced to the baseline level
MMP-9 [2]
  Level of total MMP-9 protein in conditioned media: reduces, in a dose-dependent fashion

## CCCCCCCCOCCOC(=O)CN(CC(=O)O)c1ccccc1OCCOc1ccccc1N(CC(=O)O)CC(=O)OCCOCCCCCCCC [DP-b99, 1,2-bis(2-aminophenoxy)ethane, N,N′-di(2-octoxyethyl acetate), N,N′-diacetic acid]
MMP-9 [3]; 10 or 20 ng/ml TNFα
  Active MMP-9 form, TNFα treated cells: reduced
  Pro-MMP-9 form, TNFα treated cells: reduced
MMP-9 [3]; no TNFα
  Active MMP-9 band, un-stimulated cells: abolished
  Pro-MMP-9 band intensity, un-stimulated cells: increased the band intensity
calpain
  Increase in cleaved spectrin over the sham-operated values: about 50%
calpain; sacrificed four hours later, n=2
  Cleaved spectrin (R/L hemisphere): 1.42 ± 0.08
MMP-9 [4]
  MMP-9 activity R/L ratio (injured/intact hemisphere): 3.0
MMP-2
  MMP-2 activity level: unaffected

## O=C(O)CN(CC(=O)O)c1ccccc1OCCOc1ccccc1N(CC(=O)O)CC(=O)O [BAPTA, 1,2-bis(2 aminophenoxy)ethane-N,N,N′,N′-tetraacetic acid]
MMP-9 [5]
  Effect on MMP-9 activity: did not affect the MMP-9 activity

## CC(=O)OCOC(=O)CN(CC(=O)OCOC(C)=O)c1ccccc1OCCOc1ccccc1N(CC(=O)OCOC(C)=O)CC(=O)OCOC(C)=O [BAPTA-AM, 1,2-bis(2-aminophenoxy)ethane-N,N,N′,N′-tetra-acetic acid acetoxymethyl ester]
MMP-9 [5]
  Effect on MMP-9 activity: increased rather than decreased the MMP-9 activity
MMP-9 [5]; C6 glioma cells, 20 ng/ml TNFα, compounds at 1, 5, 10 and 20 μM, zymogram
  Effect on TNFα-induced MMP-9 activity: Increased
